In brackets after ≈: the same amount, converted by molar mass.
What was measured:
Format in all cases: functional
[1] = tested on: Alternaria alternata; assay: Antimicrobial activity against Alternaria alternata ATCC 66868 after 24 hr by broth dilution method; conditions: ATCC 66868, 24 h
[2] = tested on: Klebsiella pneumoniae; assay: Antimicrobial activity against Klebsiella pneumoniae ATCC 13883 after 24 hr by broth dilution method; conditions: ATCC 13883, 24 h
[3] = tested on: Pseudomonas aeruginosa; assay: Antimicrobial activity against Pseudomonas aeruginosa ATCC 10145 after 24 hr by broth dilution method; conditions: ATCC 10145, 24 h
[4] = tested on: Proteus mirabilis; assay: Antimicrobial activity against Proteus mirabilis ATCC 49565 after 24 hr by broth dilution method; conditions: ATCC 49565, 24 h
[5] = tested on: Escherichia coli; assay: Antimicrobial activity against Escherichia coli ATCC 25922 after 24 hr by broth dilution method; conditions: ATCC 25922, 24 h
[6] = tested on: Aspergillus awamori; assay: Antimicrobial activity against Aspergillus awamori ATCC 22342 after 24 hr by broth dilution method; conditions: ATCC 22342, 24 h
[7] = tested on: Staphylococcus epidermidis; assay: Antimicrobial activity against Staphylococcus epidermidis ATCC 12228 after 24 hr by broth dilution method; conditions: ATCC 12228, 24 h
[8] = tested on: Microsporum canis; assay: Antimicrobial activity against Arthroderma otae ATCC 11622 after 24 hr by broth dilution method; conditions: ATCC 11622, 24 h
[9] = tested on: Staphylococcus hominis; assay: Antimicrobial activity against Staphylococcus hominis ATCC 27844 after 24 hr by broth dilution method; conditions: ATCC 27844, 24 h
[10] = tested on: Candida albicans; assay: Antimicrobial activity against Candida albicans ATCC 10231 after 24 hr by broth dilution method; conditions: ATCC 10231, 24 h
[11] = tested on: Proteus vulgaris; assay: Antimicrobial activity against Proteus vulgaris ATCC 13315 after 24 hr by broth dilution method; conditions: ATCC 13315, 24 h
[12] = tested on: Bacillus spizizenii; assay: Antimicrobial activity against Bacillus subtilis subsp. spizizenii ATCC 6633 after 24 hr by broth dilution method; conditions: ATCC 6633, 24 h
[13] = tested on: Micrococcus luteus; assay: Antimicrobial activity against Micrococcus luteus ATCC 4698 after 24 hr by broth dilution method; conditions: ATCC 4698, 24 h
[14] = tested on: Trichoderma viride; assay: Antimicrobial activity against Hypocrea rufa ATCC 52440 after 24 hr by broth dilution method; conditions: ATCC 52440, 24 h
[15] = tested on: Aspergillus fumigatus; assay: Antimicrobial activity against Aspergillus fumigatus after 24 hr by broth dilution method
[16] = tested on: Bacillus pumilus; assay: Antimicrobial activity against Bacillus pumilus ATCC 14884 after 24 hr by broth dilution method; conditions: ATCC 14884, 24 h
[17] = tested on: Salmonella typhi; assay: Antimicrobial activity against Salmonella enterica subsp. enterica serovar Typhi ATCC 19430 after 24 hr by broth dilution method; conditions: ATCC 19430, 24 h
[18] = tested on: Staphylococcus aureus; assay: Antimicrobial activity against Staphylococcus aureus ATCC 25923 after 24 hr by broth dilution method; conditions: ATCC 25923, 24 h
[19] = tested on: Rhizoctonia solani; assay: Antimicrobial activity against Rhizoctonia solani ATCC 76131 after 24 hr by broth dilution method; conditions: ATCC 76131, 24 h
[20] = tested on: Bacillus cereus; assay: Antimicrobial activity against Bacillus cereus ATCC 11778 after 24 hr by broth dilution method; conditions: ATCC 11778, 24 h
[21] = tested on: Trichophyton longifusum; assay: Antimicrobial activity against Trichophyton longifusum ATCC 22397 after 24 hr by broth dilution method; conditions: ATCC 22397, 24 h
[22] = tested on: Aspergillus niger; assay: Antimicrobial activity against Aspergillus niger ATCC 9142 after 24 hr by broth dilution method; conditions: ATCC 9142, 24 h
[23] = tested on: Fusarium solani; assay: Antimicrobial activity against Fusarium solani ATCC 38136 after 24 hr by broth dilution method; conditions: ATCC 38136, 24 h
[24] = tested on: Aspergillus flavus; assay: Antimicrobial activity against Aspergillus flavus ATCC 15517 after 24 hr by broth dilution method; conditions: ATCC 15517, 24 h

CN(C)c1ccc(C2C(Cl)C(=O)N2/N=C2\C(=O)Nc3ccc(Cl)cc32)cc1 (centres undefined)
MIC [1]: 4.68 µg/mL (≈ 11.6 µM) | MIC [2]: 9.37 µg/mL (≈ 23.2 µM) | MIC [3]: 9.37 µg/mL (≈ 23.2 µM) | MIC [4]: 18.8 µg/mL (≈ 46.5 µM) | MIC [5]: 9.37 µg/mL (≈ 23.2 µM) | MIC [6]: 9.37 µg/mL (≈ 23.2 µM) | MIC [7]: 9.37 µg/mL (≈ 23.2 µM) | MIC [8]: 4.68 µg/mL (≈ 11.6 µM) | MIC [9]: 18.8 µg/mL (≈ 46.5 µM) | MIC [10]: 4.68 µg/mL (≈ 11.6 µM) | MIC [11]: 9.37 µg/mL (≈ 23.2 µM) | MIC [12]: 18.8 µg/mL (≈ 46.5 µM) | MIC [13]: 18.8 µg/mL (≈ 46.5 µM) | MIC [14]: 4.68 µg/mL (≈ 11.6 µM) | MIC [15]: 4.68 µg/mL (≈ 11.6 µM) | MIC [16]: 9.37 µg/mL (≈ 23.2 µM) | MIC [17]: 9.37 µg/mL (≈ 23.2 µM) | MIC [18]: 18.8 µg/mL (≈ 46.5 µM) | MIC [19]: 9.37 µg/mL (≈ 23.2 µM) | MIC [20]: 18.8 µg/mL (≈ 46.5 µM) | MIC [21]: 4.68 µg/mL (≈ 11.6 µM) | MIC [22]: 9.37 µg/mL (≈ 23.2 µM) | MIC [23]: 9.37 µg/mL (≈ 23.2 µM) | MIC [24]: 4.68 µg/mL (≈ 11.6 µM)

O=C1Nc2ccc(Cl)cc2/C1=N/N1C(=O)C(Cl)C1c1ccccc1O (centres undefined)
MIC [1]: 150 µg/mL (≈ 399 µM) | MIC [2]: 300 µg/mL (≈ 797 µM) | MIC [3]: 300 µg/mL (≈ 797 µM) | MIC [4]: 150 µg/mL (≈ 399 µM) | MIC [5]: 150 µg/mL (≈ 399 µM) | MIC [6]: 150 µg/mL (≈ 399 µM) | MIC [7]: 300 µg/mL (≈ 797 µM) | MIC [8]: 150 µg/mL (≈ 399 µM) | MIC [9]: 300 µg/mL (≈ 797 µM) | MIC [10]: 75 µg/mL (≈ 199 µM) | MIC [11]: 150 µg/mL (≈ 399 µM) | MIC [12]: 300 µg/mL (≈ 797 µM) | MIC [13]: 150 µg/mL (≈ 399 µM) | MIC [14]: 150 µg/mL (≈ 399 µM) | MIC [15]: 150 µg/mL (≈ 399 µM) | MIC [16]: 300 µg/mL (≈ 797 µM) | MIC [17]: 300 µg/mL (≈ 797 µM) | MIC [18]: 150 µg/mL (≈ 399 µM) | MIC [19]: 150 µg/mL (≈ 399 µM) | MIC [20]: 300 µg/mL (≈ 797 µM) | MIC [21]: 150 µg/mL (≈ 399 µM) | MIC [22]: 75 µg/mL (≈ 199 µM) | MIC [23]: 75 µg/mL (≈ 199 µM) | MIC [24]: 150 µg/mL (≈ 399 µM)

O=C1Nc2ccc(Cl)cc2/C1=N/N1C(=O)CSC1c1ccc(F)cc1 (centres undefined)
MIC [1]: 9.37 µg/mL (≈ 24.9 µM) | MIC [2]: 18.8 µg/mL (≈ 49.9 µM) | MIC [3]: 9.37 µg/mL (≈ 24.9 µM) | MIC [4]: 18.8 µg/mL (≈ 49.9 µM) | MIC [5]: 18.8 µg/mL (≈ 49.9 µM) | MIC [6]: 9.37 µg/mL (≈ 24.9 µM) | MIC [7]: 9.37 µg/mL (≈ 24.9 µM) | MIC [8]: 9.37 µg/mL (≈ 24.9 µM) | MIC [9]: 9.37 µg/mL (≈ 24.9 µM) | MIC [10]: 9.37 µg/mL (≈ 24.9 µM) | MIC [11]: 18.8 µg/mL (≈ 49.9 µM) | MIC [12]: 18.8 µg/mL (≈ 49.9 µM) | MIC [13]: 18.8 µg/mL (≈ 49.9 µM) | MIC [14]: 4.68 µg/mL (≈ 12.5 µM) | MIC [15]: 4.68 µg/mL (≈ 12.5 µM) | MIC [16]: 9.37 µg/mL (≈ 24.9 µM) | MIC [17]: 9.37 µg/mL (≈ 24.9 µM) | MIC [18]: 18.8 µg/mL (≈ 49.9 µM) | MIC [19]: 4.68 µg/mL (≈ 12.5 µM) | MIC [20]: 9.37 µg/mL (≈ 24.9 µM) | MIC [21]: 4.68 µg/mL (≈ 12.5 µM) | MIC [22]: 9.37 µg/mL (≈ 24.9 µM) | MIC [23]: 4.68 µg/mL (≈ 12.5 µM) | MIC [24]: 9.37 µg/mL (≈ 24.9 µM)

COc1ccc(C2C(Cl)C(=O)N2/N=C2\C(=O)Nc3ccc(Cl)cc32)cc1 (centres undefined)
MIC [1]: 9.37 µg/mL (≈ 24 µM) | MIC [2]: 9.37 µg/mL (≈ 24 µM) | MIC [3]: 9.37 µg/mL (≈ 24 µM) | MIC [4]: 18.8 µg/mL (≈ 48 µM) | MIC [5]: 9.37 µg/mL (≈ 24 µM) | MIC [6]: 4.68 µg/mL (≈ 12 µM) | MIC [7]: 9.37 µg/mL (≈ 24 µM) | MIC [8]: 9.37 µg/mL (≈ 24 µM) | MIC [9]: 18.8 µg/mL (≈ 48 µM) | MIC [10]: 4.68 µg/mL (≈ 12 µM) | MIC [11]: 18.8 µg/mL (≈ 48 µM) | MIC [12]: 18.8 µg/mL (≈ 48 µM) | MIC [13]: 9.37 µg/mL (≈ 24 µM) | MIC [14]: 4.68 µg/mL (≈ 12 µM) | MIC [15]: 4.68 µg/mL (≈ 12 µM) | MIC [16]: 9.37 µg/mL (≈ 24 µM) | MIC [17]: 9.37 µg/mL (≈ 24 µM) | MIC [18]: 18.8 µg/mL (≈ 48 µM) | MIC [19]: 9.37 µg/mL (≈ 24 µM) | MIC [20]: 9.37 µg/mL (≈ 24 µM) | MIC [21]: 4.68 µg/mL (≈ 12 µM) | MIC [22]: 4.68 µg/mL (≈ 12 µM) | MIC [23]: 4.68 µg/mL (≈ 12 µM) | MIC [24]: 9.37 µg/mL (≈ 24 µM)

O=C1Nc2ccc(Cl)cc2/C1=N/N1C(=O)C(Cl)C1c1ccc(F)cc1 (centres undefined)
MIC [1]: 4.68 µg/mL (≈ 12.4 µM) | MIC [2]: 18.8 µg/mL (≈ 49.6 µM) | MIC [3]: 18.8 µg/mL (≈ 49.6 µM) | MIC [4]: 9.37 µg/mL (≈ 24.8 µM) | MIC [5]: 18.8 µg/mL (≈ 49.6 µM) | MIC [6]: 4.68 µg/mL (≈ 12.4 µM) | MIC [7]: 18.8 µg/mL (≈ 49.6 µM) | MIC [8]: 9.37 µg/mL (≈ 24.8 µM) | MIC [9]: 9.37 µg/mL (≈ 24.8 µM) | MIC [10]: 4.68 µg/mL (≈ 12.4 µM) | MIC [11]: 18.8 µg/mL (≈ 49.6 µM) | MIC [12]: 9.37 µg/mL (≈ 24.8 µM) | MIC [13]: 18.8 µg/mL (≈ 49.6 µM) | MIC [14]: 9.37 µg/mL (≈ 24.8 µM) | MIC [15]: 9.37 µg/mL (≈ 24.8 µM) | MIC [16]: 18.8 µg/mL (≈ 49.6 µM) | MIC [17]: 9.37 µg/mL (≈ 24.8 µM) | MIC [18]: 18.8 µg/mL (≈ 49.6 µM) | MIC [19]: 9.37 µg/mL (≈ 24.8 µM) | MIC [20]: 18.8 µg/mL (≈ 49.6 µM) | MIC [21]: 9.37 µg/mL (≈ 24.8 µM) | MIC [22]: 4.68 µg/mL (≈ 12.4 µM) | MIC [23]: 9.37 µg/mL (≈ 24.8 µM) | MIC [24]: 4.68 µg/mL (≈ 12.4 µM)

O=C1Nc2ccc(Cl)cc2/C1=N/N1C(=O)C(Cl)C1c1ccccc1 (centres undefined)
MIC [1]: 18.8 µg/mL (≈ 52.1 µM) | MIC [2]: 37.5 µg/mL (≈ 104 µM) | MIC [3]: 37.5 µg/mL (≈ 104 µM) | MIC [4]: 37.5 µg/mL (≈ 104 µM) | MIC [5]: 37.5 µg/mL (≈ 104 µM) | MIC [6]: 37.5 µg/mL (≈ 104 µM) | MIC [7]: 37.5 µg/mL (≈ 104 µM) | MIC [8]: 37.5 µg/mL (≈ 104 µM) | MIC [9]: 75 µg/mL (≈ 208 µM) | MIC [10]: 37.5 µg/mL (≈ 104 µM) | MIC [11]: 37.5 µg/mL (≈ 104 µM) | MIC [12]: 37.5 µg/mL (≈ 104 µM) | MIC [13]: 37.5 µg/mL (≈ 104 µM) | MIC [14]: 18.8 µg/mL (≈ 52.1 µM) | MIC [15]: 37.5 µg/mL (≈ 104 µM) | MIC [16]: 37.5 µg/mL (≈ 104 µM) | MIC [17]: 75 µg/mL (≈ 208 µM) | MIC [18]: 75 µg/mL (≈ 208 µM) | MIC [19]: 18.8 µg/mL (≈ 52.1 µM) | MIC [20]: 37.5 µg/mL (≈ 104 µM) | MIC [21]: 37.5 µg/mL (≈ 104 µM) | MIC [22]: 18.8 µg/mL (≈ 52.1 µM) | MIC [23]: 18.8 µg/mL (≈ 52.1 µM) | MIC [24]: 18.8 µg/mL (≈ 52.1 µM)

Source: ChEMBL document CHEMBL3046063, “Synthesis and antimicrobial activity of 5-chloroindoline-2,3-dione derivatives” (2012)
